We go through 22 molecules from patent US11020398B2, “Amino-pyrrolopyrimidinone compounds and methods of use thereof” (ArQule, Inc., priority 2016, dated 2021).

In assay [1] the target is full-length activated BTK mutant C481S (Homo sapiens (Human), UniProt Q06187, C481S). Put plainly: AlphaScreen assay, BTK mutant C481S. Format: biochemical. On the procedure: (§1) The activated BTK was frozen in 50 μl aliquots (125-150 μg/ml).
(§2) BTK activity was assayed using a PLCγ2-derived biotinylated peptide substrate (biotin-[…]-OH) and AlphaScreen™ (Amplified Luminescent Proximity Homogeneous Assay) technology. The extent of peptide phosphorylation was determined by using acceptor beads conjugated to phosphotyrosine antibody that recognized the phosphorylated peptide and donor beads conjugated to streptavidin that binds to the biotin on the peptide. Excitation of the donor beads converted ambient oxygen to excited singlet oxygen which when in close proximity to acceptor beads, reacted with acceptor beads resulting in signal amplification.
(§3) Test inhibitors and controls were prepared in 10% DMSO at 10-fold the desired final concentration and added to each well of a reaction plate (Corning 96-well half-area solid white nonbinding surface plate) in a volume of 2.5 μl. […] The plate was incubated for 120 min at room temperature and the reaction stopped by the addition of 10 μl stop/detection mixture containing 35 mM EDTA, 50 ug/ml AlphaScreen™ Streptavidin Donor beads (final concentration is 500 ng/well) and AlphaScreen™ Phospho-tyrosine (P-Tyr-100) Acceptor beads (final concentration is 500 ng/well) under green light conditions. The plate was incubated overnight at room temperature in the dark and the plates read on the BMG PolarStar Omega ([…], Gain=4000). Data were archived and analyzed with a 4-parameter fit to generate IC50 values using the CDD Vault from Collaborative Drug Discovery.
In general terms: Alpha assays give light when donor and acceptor beads are brought close together.

Assay [2] deals with full-length activated BTK (wildtype) (Homo sapiens (Human), UniProt Q06187). Put plainly: AlphaScreen assay, wild-type BTK. Format: biochemical. Here is the method:
as §1, §2, §3

Sequence of full-length activated BTK (wildtype) (Q06187 whole entry): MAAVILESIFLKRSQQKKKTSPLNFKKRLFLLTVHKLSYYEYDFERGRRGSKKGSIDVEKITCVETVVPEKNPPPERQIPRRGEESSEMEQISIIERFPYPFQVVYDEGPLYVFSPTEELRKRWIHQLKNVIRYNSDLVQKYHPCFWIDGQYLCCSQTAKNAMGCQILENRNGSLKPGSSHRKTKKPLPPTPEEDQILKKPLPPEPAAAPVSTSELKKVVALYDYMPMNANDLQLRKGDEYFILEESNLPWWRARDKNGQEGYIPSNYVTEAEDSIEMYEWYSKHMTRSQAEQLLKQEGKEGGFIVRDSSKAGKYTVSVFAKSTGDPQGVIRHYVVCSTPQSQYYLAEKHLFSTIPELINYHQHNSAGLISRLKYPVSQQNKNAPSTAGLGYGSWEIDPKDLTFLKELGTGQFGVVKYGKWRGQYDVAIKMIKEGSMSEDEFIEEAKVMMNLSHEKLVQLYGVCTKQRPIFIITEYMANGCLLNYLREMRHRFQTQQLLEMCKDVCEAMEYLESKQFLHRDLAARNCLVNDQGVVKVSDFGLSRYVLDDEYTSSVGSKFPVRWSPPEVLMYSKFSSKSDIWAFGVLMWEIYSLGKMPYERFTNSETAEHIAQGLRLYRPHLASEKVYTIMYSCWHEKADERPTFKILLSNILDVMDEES
Sequence of full-length activated BTK mutant C481S (Q06187 whole entry C481S): as the sequence (Q06187 whole entry) above, with C481S counted along it

A word on the IC50: it is the point on the concentration scale where inhibition reaches its midpoint. A high value points to lower potency. Turning to `C=CC(=O)N1CCCC(Nc2ncnc3[nH]cc(C(=O)c4ccc(Oc5ccccc5)cc4Cl)c23)C1` (racemic) [Compound I-321r, (racemic)-1-(3-((5-(2-chloro-4-phenoxybenzoyl)-7H-pyrrolo[2,3-d]pyrimidin-4-yl)amino)piperidin-1-yl)prop-2-en-1-one], the values for the IC50 in assay [1] and in assay [2] were 179 nM and 4.5 nM, respectively.

For `C=CS(=O)(=O)N1CCCC(Nc2ncnc3[nH]cc(C(=O)c4ccc(Oc5ccccc5)cc4Cl)c23)C1` (racemic) [Compound I-322r, (racemic)-(2-chloro-4-phenoxyphenyl)(4-((1-(vinylsulfonyl)piperidin-3-yl)amino)-7H-pyrrolo[2,3-d]pyrimidin-5-yl)methanone], the IC50 in assay [1] worked out at 98.6 nM; in assay [2] it was 10.4 nM.

On to `CC#CC(=O)N1CCCC(Nc2ncnc3[nH]cc(C(=O)c4ccc(Oc5ccccc5)cc4Cl)c23)C1` (racemic) [Compound I-324r, (racemic)-1-(3-((5-(2-chloro-4-phenoxybenzoyl)-7H-pyrrolo[2,3-d]pyrimidin-4-yl)amino)piperidin-1-yl)but-2-yn-1-one], for which the values for the IC50 in assay [1] and in assay [2] were 105 nM and 17.2 nM, respectively.

As for `C=CC(=O)N1CCCC1CNc1ncnc2[nH]cc(C(=O)c3ccc(Oc4ccccc4)cc3Cl)c12` (racemic) [Compound I-325r, (racemic)-1-(2-(((5-(2-chloro-4-phenoxybenzoyl)-7H-pyrrolo[2,3-d]pyrimidin-4-yl)amino)methyl)pyrrolidin-1-yl)prop-2-en-1-one], the figures for the IC50 in assay [1] and in assay [2] were 136 nM and 0.98 nM, respectively.

As for `C=CS(=O)(=O)N1CCCC1CNc1ncnc2[nH]cc(C(=O)c3ccc(Oc4ccccc4)cc3Cl)c12` (racemic) [Compound I-326r, (racemic)-(2-chloro-4-phenoxyphenyl)(4-(((1-(vinylsulfonyl)pyrrolidin-2-yl)methyl)amino)-7H-pyrrolo[2,3-d]pyrimidin-5-yl)methanone], the IC50 in assay [1] turned out to be 419 nM; in assay [2], 4.33 nM.

In the case of `CC#CC(=O)N1CCCC1CNc1ncnc2[nH]cc(C(=O)c3ccc(Oc4ccccc4)cc3Cl)c12` (racemic) [Compound I-328r, (racemic)-1-(2-(((5-(2-chloro-4-phenoxybenzoyl)-7H-pyrrolo[2,3-d]pyrimidin-4-yl)amino)methyl)pyrrolidin-1-yl)but-2-yn-1-one], the IC50 in assay [1] turned out to be 18.4 nM; in assay [2], 0.98 nM.

`O=C(c1ccc(Oc2ccccc2)cc1Cl)c1c[nH]c2ncnc(NC3CCC(CO)NC3)c12` (racemic) [Compound I-343r, rac-(2-chloro-4-phenoxyphenyl)(4-((6-(hydroxymethyl)piperidin-3-yl)amino)-7H-pyrrolo[2,3-d]pyrimidin-5-yl)methanone]: the IC50 in assay [1] is 34 nM; in assay [2], 11 nM.

Take `O=C(c1ccc(Oc2ccccc2)cc1Cl)c1c[nH]c2ncnc(NC[C@H]3CCC[C@@H](CO)N3)c12` (racemic) [Compound I-359e, racemic-cis-(2-chloro-4-phenoxyphenyl)(4-(((6-(hydroxymethyl)piperidin-2-yl)methyl)amino)-7H-pyrrolo[2,3-d]pyrimidin-5-yl)methanone]: the IC50 in assay [1] is 124 nM; in assay [2], 29.4 nM.

For the molecule `CN1[C@H](CO)CCC[C@@H]1CNc1ncnc2[nH]cc(C(=O)c3ccc(Oc4ccccc4)cc3Cl)c12` (racemic) [Compound I-360e, racemic-cis-(2-chloro-4-phenoxyphenyl)(4-(((6-(hydroxymethyl)-1-methylpiperidin-2-yl)methyl)amino)-7H-pyrrolo[2,3-d]pyrimidin-5-yl)methanone], the figures for the half-maximal inhibitory concentration (IC50) in assay [1] and in assay [2] were 59.4 nM and 1.07 nM, respectively.

Regarding `CS(=O)(=O)N1CC(Nc2ncnc3[nH]cc(C(=O)c4ccc(Oc5ccccc5)cc4Cl)c23)CCC1CO` (racemic) [Compound I-653, (racemic)-(2-chloro-4-phenoxyphenyl)(4-((6-(hydroxymethyl)-1-(methylsulfonyl)piperidin-3-yl)amino)-7H-pyrrolo[2,3-d]pyrimidin-5-yl)methanone], the IC50 in assay [1] came out at 38.8 nM; in assay [2] it was 10 nM.

For `CC(=O)N1CC(Nc2ncnc3[nH]cc(C(=O)c4ccc(Oc5ccccc5)cc4Cl)c23)CCC1CO` (racemic) [Compound I-654, rac-1-(5-((5-(2-chloro-4-phenoxybenzoyl)-7H-pyrrolo[2,3-d]pyrimidin-4-yl)amino)-2-(hydroxymethyl)-piperidin-1-yl)ethan-1-one], the IC50 in assay [1] came to 20.7 nM; in assay [2], 6.55 nM.

For the molecule `O=C(Nc1ccccc1)c1ccc(C(=O)c2c[nH]c3ncnc(N[C@@H]4CC[C@@H](CO)OC4)c23)cc1` [Compound I-231, 4-(4-(((3R,6S)-6-(hydroxymethyl)tetrahydro-2H-pyran-3-yl)amino)-7H-pyrrolo[2,3-d]pyrimidine-5-carbonyl)-N-phenylbenzamide], the figures for the 50% inhibitory concentration (IC50) in assay [1] and in assay [2] were 248 nM and 318 nM, respectively.

`O=C(Nc1ccccc1)c1ccc(C(=O)c2c[nH]c3ncnc(N[C@@H]4CC[C@@H](CO)OC4)c23)c(Cl)c1` [Compound I-236, 3-chloro-4-(4-(((3R,6S)-6-(hydroxymethyl)tetrahydro-2H-pyran-3-yl)amino)-7H-pyrrolo[2,3-d]pyrimidine-5-carbonyl)-N-phenylbenzamide]: the 50% inhibitory concentration (IC50) in assay [1] came out at 98.4 nM; in assay [2], 181 nM.

On to `O=C(Nc1ccncc1)c1ccc(C(=O)c2c[nH]c3ncnc(N[C@@H]4CC[C@@H](CO)OC4)c23)c(Cl)c1` [Compound I-246, 3-chloro-4-(4-(((3R,6S)-6-(hydroxymethyl)tetrahydro-2H-pyran-3-yl)amino)-7H-pyrrolo[2,3-d]pyrimidine-5-carbonyl)-N-(pyridin-4-yl)benzamide], for which the values for the IC50 in assay [1] and in assay [2] were 514 nM and 103 nM, respectively.

Take `O=C(Nc1cccnc1)c1ccc(C(=O)c2c[nH]c3ncnc(N[C@@H]4CC[C@@H](CO)OC4)c23)c(Cl)c1` [Compound I-256, 3-chloro-4-(4-(((3R,6S)-6-(hydroxymethyl)tetrahydro-2H-pyran-3-yl)amino)-7H-pyrrolo[2,3-d]pyrimidine-5-carbonyl)-N-(pyridin-3-yl)benzamide]: the IC50 in assay [1] is 317 nM; in assay [2] it was 156 nM.

Regarding `O=C(Nc1ccc(C(=O)c2c[nH]c3ncnc(N[C@@H]4CC[C@@H](CO)OC4)c23)c(Cl)c1)c1ccccc1` [Compound I-276, N-(3-chloro-4-(4-(((3R,6S)-6-(hydroxymethyl)tetrahydro-2H-pyran-3-yl)amino)-7H-pyrrolo[2,3-d]pyrimidine-5-carbonyl)phenyl)benzamide], the half-inhibitory concentration (IC50) in assay [1] came to 58 nM; in assay [2], 17.6 nM.

With `O=C(c1ccc(N2CCOCC2)cc1Cl)c1c[nH]c2ncnc(N[C@@H]3CC[C@@H](CO)OC3)c12` [Compound I-311i, (2-chloro-4-morpholinophenyl)(4-(((3R,6S)-6-(hydroxymethyl)tetrahydro-2H-pyran-3-yl)amino)-7H-pyrrolo[2,3-d]pyrimidin-5-yl)methanone], the inhibition at 10 µM in assay [1] (read-out: BTK-C481S % @ 10 uM, @ 10 uM) is 81%. In addition, the concentration for half-maximal inhibition (IC50) in assay [2] was 867 nM.

On to `COCCOc1ccc(C(=O)c2c[nH]c3ncnc(N[C@@H]4CC[C@@H](CO)OC4)c23)c(Cl)c1` [Compound I-317i, (2-chloro-4-(2-methoxyethoxy)phenyl)(4-(((3R,6S)-6-(hydroxymethyl)tetrahydro-2H-pyran-3-yl)amino)-7H-pyrrolo[2,3-d]pyrimidin-5-yl)methanone], for which the figures for the IC50 in assay [1] and in assay [2] were 156 nM and 40.7 nM, respectively.

In the case of `COCCOc1ccc(C(=O)c2c[nH]c3ncnc(N[C@@H]4CC[C@@H](CO)OC4)c23)cc1` [Compound I-318i, (4-(((3R,6S)-6-(hydroxymethyl)tetrahydro-2H-pyran-3-yl)amino)-7H-pyrrolo[2,3-d]pyrimidin-5-yl)(4-(2-methoxyethoxy)phenyl)methanone], the values for the IC50 in assay [1] and in assay [2] were 714 nM and 423 nM, respectively.

`CNC(=O)c1cccc(Oc2ccc(C(=O)c3c[nH]c4ncnc(N[C@@H]5CC[C@@H](CO)OC5)c34)c(Cl)c2)n1` [Compound I-319, 6-(3-chloro-4-(4-(((3R,6S)-6-(hydroxymethyl)tetrahydro-2H-pyran-3-yl)amino)-7H-pyrrolo[2,3-d]pyrimidine-5-carbonyl)phenoxy)-N-methyl picolinamide]: the half-inhibitory concentration (IC50) in assay [1] is 127 nM; in assay [2], 444 nM.

For the molecule `CNC(=O)c1cccc(Oc2ccc(C(=O)c3c[nH]c4ncnc(N[C@@H]5CC[C@@H](CO)OC5)c34)cc2)n1` [Compound I-320, 6-(4-(4-(((3R,6S)-6-(hydroxymethyl)tetrahydro-2H-pyran-3-yl)amino)-7H-pyrrolo[2,3-d]pyrimidine-5-carbonyl)phenoxy)-N-methylpicolinamide], the IC50 is 63.1 nM in assay [1] and 336 nM in assay [2].

For the molecule `CN1C[C@H](Nc2ncnc3[nH]cc(C(=O)c4ccc(Oc5ccccc5)cc4Cl)c23)C[C@H]1CO` [Compound I-342e, (2-chloro-4-phenoxyphenyl)(4-(((3R,5S)-5-(hydroxymethyl)-1-methylpyrrolidin-3-yl)amino)-7H-pyrrolo[2,3-d]pyrimidin-5-yl)methanone], the values for the IC50 in assay [1] and in assay [2] were 33.4 nM and 14.2 nM, respectively.
